# Test results from PubChem BioAssay (NCI).
#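 Cells were grown in 96-well plates and exposed to each compound for 48 hours at five concentrations; endpoints were interpolated linearly between bracketing concentrations, or set to the highest concentration if not reached. GI50 = concentration required for 50% inhibition of growth. The concentration for full growth arrest is given as TGI.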
# Experiments:
# Assay in all cases: NCI-60 cell line screen, 48 h
# [1] = tested on: UO-31 renal
# [2] = tested on: NCI-H23 lung
# [3] = tested on: 786-0 renal
# [4] = tested on: SF-539 CNS
# [5] = tested on: HL-60(TB) leukemia
# [6] = tested on: EKVX NSCLC
# [7] = tested on: HOP-62 NSCLC
# [8] = tested on: DMS 273 small cell lung
# [9] = tested on: TK-10 renal
# [10] = tested on: DMS 114 small cell lung
Structure (SMILES),TGI [1] [µM],TGI [2] [µM],TGI [3] [µM],TGI [4] [µM],TGI [5] [µM],TGI [6] [µM],TGI [7] [µM],TGI [8] [µM],TGI [9] [µM],GI50 [1] [µM],GI50 [2] [µM],GI50 [10] [µM],TGI [10] [µM],GI50 [4] [µM],GI50 [6] [µM],GI50 [7] [µM],GI50 [8] [µM],GI50 [9] [µM],GI50 [3] [µM],GI50 [5] [µM]
Cc1cccc(-c2nc(=S)[nH][nH]2)c1,> 100,> 100,> 100,> 100,> 100,> 100,> 100,> 100,> 100,,,,,,,,,,,
O=c1c2ccccc2c(=O)n2n1-c1cccc(c1)CSSCc1cccc-2c1,> 100,> 100,> 100,> 100,,> 100,> 100,> 100,> 100,> 100,> 100,> 100,> 100,> 100,> 100,> 100,> 100,> 100,,
CC(C)N1CCOC(c2ccc(O)c(O)c2)C1 (stereo not drawn),> 100,> 100,> 100,,> 100,> 100,> 100,> 100,> 100,,,,> 100,,,,,,,
O=C(c1ccccc1)[C@H]1Nc2ccc(Cl)cc2[C@H]2c3ccccc3O[C@H]21,18.2,28.1,30.6,28.7,,28.6,32.5,38.7,30.4,,,,40.1,,,,,,,
Clc1cccc(-c2cc(-c3ccc4c(c3)OCCO4)[nH]n2)c1,43.9,57.4,64.9,36.1,53.6,45.6,41.6,,56.1,9.27,8.66,,,6.31,11.5,2.39,,13.9,23.1,4.65
O=NN(CC1(O)OCC(O)C(O)C1O)C(Cc1c[nH]c2ccccc12)C(=O)O (stereo not drawn),,> 100,> 100,> 100,> 100,> 100,> 100,> 100,> 100,,,,> 100,,,,,,,
CCN(CC)C(=O)c1cccc2c(OC)ccc(OC)c12,> 100,> 100,> 100,,> 100,> 100,> 100,> 100,> 100,,,,> 100,,,,,,,
c1ccc2[nH]c(-c3ccc(Nc4nc(N5CCCC5)nc5[nH]ncc45)cc3)nc2c1,3.54,2.7,0.347,2.24,0.517,3.12,3.07,,3.53,1.46,0.808,,,1.05,1.45,1.46,,1.91,0.17,0.216
CC(C)CC(NC(=O)C(O)C(N)Cc1ccccc1)C(=O)O (stereo not drawn),> 100,> 100,> 100,> 100,> 100,> 100,> 100,,> 100,,,,,,,,,,,
O=C1C2C3SC(c4cc5ccccc5cc43)C2C(=O)N1c1ccccc1 (stereo not drawn),> 100,> 100,> 100,> 100,> 100,> 100,,> 100,> 100,,,,> 100,,,,,,,
CN1CCN(c2cc(F)c(NC3=C(Cl)C(=O)c4ncccc4C3=O)c(F)c2)CC1,2.72,3.01,3.8,2.91,5.46,3.19,5.18,,3.32,1.39,1.4,,,1.52,1.7,2.06,,1.81,1.84,1.65
CCN(CC)CC(C(=O)Nc1c(C)cccc1C)/C(C)=N\NC(=S)NN (stereo not drawn),> 100,> 100,> 100,> 100,> 100,> 100,> 100,> 100,> 100,,,,,,,,,,,
Cc1ccc(NC(=O)c2ccoc2)cc1-c1ccc(C(=O)NCC2CC2)cc1,> 17.1,> 25,> 25,> 25,> 25,> 25,> 25,,> 25,> 9.98,> 25,,,> 25,> 13.5,> 25,,> 25,> 25,> 20.4
C=CCn1c(SCC(=O)Nc2ccc(C(=O)/C=C/c3cc(OC)c(OC)c(OC)c3)cc2)nnc1-c1cc(OC)c(OC)c(OC)c1,17.5,26,4.01,8.83,33,33.8,37.9,,58.8,4.18,3.41,,,2.52,4.03,5.17,,23.3,1.85,2.88
